Earlier results in patent publication US20200360292A1, “OIL-SOLUBLE DRUG CONTAINING COMPOSITIONS AND METHODS OF USE THEREOF” (priority 2019, published 2020).

Conditions: inhalation

CCCCCc1cc(O)c2c(c1)OC(C)(C)[C@@H]1CCC(C)=C[C@@H]21 [THC, Δ9-tetrahydrocannabinol]
Time to maximum plasma concentration: within minutes
